Test results taken from ChEMBL document CHEMBL5212743, “Selectivity Literature for EUbOPEN Chemogenomics Library wave 3” (2023).
pIC50, pKd: −log10 of the molar value.

Key:
[1] = biological target: Serine/threonine-protein kinase 16 (Homo sapiens, UniProt O75716); experiment: Selectivity interaction (KinomeScan (DiscoverX)) EUB0000702a STK16; details: at 1 µM
[2] = biological target: Serine/threonine-protein kinase ULK1 (Homo sapiens) (UniProt O75385); experiment: Selectivity interaction (KinomeScan (DiscoverX)) EUB0000702a ULK1; details: at 1 µM
[3] = biological target: Serine/threonine-protein kinase Chk2 (Homo sapiens, UniProt O96017); experiment: Selectivity interaction (KinomeScan (DiscoverX)) EUB0000702a CHEK2; details: at 1 µM
[4] = biological target: G protein-coupled receptor kinase 4 (Homo sapiens) (UniProt P32298); experiment: Selectivity interaction (KinomeScan (DiscoverX)) EUB0000702a GRK4; details: at 1 µM
[5] = biological target: Casein kinase II subunit alpha' (Homo sapiens) (UniProt P19784); experiment: Selectivity interaction (KinomeScan (DiscoverX)) EUB0000702a CSNK2A2; details: at 1 µM
[6] = biological target: Tyrosine-protein kinase JAK2 (Homo sapiens, UniProt O60674); experiment: Selectivity interaction (KinomeScan (DiscoverX)) EUB0000702a JAK2; details: at 1 µM
[7] = biological target: Tyrosine-protein kinase FRK (Homo sapiens, UniProt P42685); details: at 1 µM
[8] = biological target: Tyrosine-protein kinase receptor Tie-1 (Homo sapiens) (UniProt P35590); details: at 1 µM
[9] = biological target: Tyrosine-protein kinase Lck (Homo sapiens, UniProt P06239); experiment: Selectivity interaction (Kinase panel (University of Dundee)) EUB0000169b LCK; details: at 10 µM
[10] = biological target: Tyrosine-protein kinase CSK (Homo sapiens) (UniProt P41240); experiment: Selectivity interaction (Kinase panel (University of Dundee)) EUB0000169b CSK; details: at 10 µM
[11] = biological target: Serine/threonine-protein kinase PLK2 (Homo sapiens) (UniProt Q9NYY3); experiment: Selectivity interaction (KinomeScan (DiscoverX)) EUB0000169b PLK2; details: at 1 µM
[12] = biological target: T1, Ephrin type-B receptor 6 (Homo sapiens) (UniProt O15197); experiment: Selectivity interaction (KinomeScan (DiscoverX)) EUB0000698a EPHB6; details: at 10 µM
T1 sequence (whole entry): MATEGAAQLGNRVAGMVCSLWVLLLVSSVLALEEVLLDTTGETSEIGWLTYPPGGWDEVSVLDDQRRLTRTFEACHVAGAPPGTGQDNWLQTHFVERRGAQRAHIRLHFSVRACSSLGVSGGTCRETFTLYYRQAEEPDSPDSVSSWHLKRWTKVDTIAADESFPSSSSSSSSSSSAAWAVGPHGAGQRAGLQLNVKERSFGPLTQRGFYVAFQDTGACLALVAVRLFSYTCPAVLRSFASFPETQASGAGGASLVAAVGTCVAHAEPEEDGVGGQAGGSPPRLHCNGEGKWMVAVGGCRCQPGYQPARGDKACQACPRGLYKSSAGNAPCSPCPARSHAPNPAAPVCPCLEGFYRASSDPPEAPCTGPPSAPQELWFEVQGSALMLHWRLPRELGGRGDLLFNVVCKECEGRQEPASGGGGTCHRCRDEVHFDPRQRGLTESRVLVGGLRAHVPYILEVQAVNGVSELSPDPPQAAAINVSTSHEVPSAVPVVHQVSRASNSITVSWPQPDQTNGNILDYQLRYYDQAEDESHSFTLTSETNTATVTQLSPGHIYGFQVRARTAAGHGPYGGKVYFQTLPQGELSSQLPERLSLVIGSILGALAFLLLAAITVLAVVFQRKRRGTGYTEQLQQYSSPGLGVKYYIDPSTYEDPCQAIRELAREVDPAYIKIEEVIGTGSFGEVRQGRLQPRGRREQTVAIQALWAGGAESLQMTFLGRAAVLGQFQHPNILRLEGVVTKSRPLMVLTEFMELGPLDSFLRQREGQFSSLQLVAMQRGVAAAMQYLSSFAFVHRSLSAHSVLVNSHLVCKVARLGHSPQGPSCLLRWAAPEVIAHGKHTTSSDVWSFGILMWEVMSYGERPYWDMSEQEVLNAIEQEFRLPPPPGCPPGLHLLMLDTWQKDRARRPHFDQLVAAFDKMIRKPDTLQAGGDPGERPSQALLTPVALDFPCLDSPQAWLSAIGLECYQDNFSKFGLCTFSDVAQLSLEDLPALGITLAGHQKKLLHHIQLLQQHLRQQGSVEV

[13] = biological target: Phosphatidylinositol 4-phosphate 5-kinase type-1 gamma (Homo sapiens) (UniProt O60331); experiment: Selectivity interaction (KinomeScan (DiscoverX)) EUB0000698a PIP5K1C; details: at 10 µM
[14] = biological target: Non-receptor tyrosine-protein kinase TYK2 (Homo sapiens, UniProt P29597); experiment: Selectivity interaction (KinomeScan (DiscoverX, competition-binding assay)) EUB0000178b TYK2
[15] = biological target: T2, Phosphatidylinositol 5-phosphate 4-kinase type-2 gamma (Homo sapiens) (UniProt Q8TBX8); experiment: Selectivity interaction (KinomeScan (DiscoverX)) EUB0000178b PIP4K2C; details: at 1 µM
T2 sequence (whole entry): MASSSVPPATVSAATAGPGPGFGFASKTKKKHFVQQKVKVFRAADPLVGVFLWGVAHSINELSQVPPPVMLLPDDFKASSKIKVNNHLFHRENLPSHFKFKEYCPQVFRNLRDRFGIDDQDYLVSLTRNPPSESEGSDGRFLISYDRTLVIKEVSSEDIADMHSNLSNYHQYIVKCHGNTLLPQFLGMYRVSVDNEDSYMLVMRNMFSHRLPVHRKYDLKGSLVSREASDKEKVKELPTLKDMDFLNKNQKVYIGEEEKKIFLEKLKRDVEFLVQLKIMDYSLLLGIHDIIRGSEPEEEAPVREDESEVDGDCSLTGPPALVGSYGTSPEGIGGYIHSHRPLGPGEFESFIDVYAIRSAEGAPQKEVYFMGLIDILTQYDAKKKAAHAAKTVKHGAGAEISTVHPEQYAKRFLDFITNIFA

[16] = biological target: Phosphatidylinositol 4-phosphate 5-kinase type-1 gamma (Homo sapiens) (UniProt O60331); experiment: Selectivity interaction (KinomeScan (DiscoverX)) EUB0000178b PIP5K1C; details: at 1 µM
[17] = test system: Tyrosine-protein kinase ABL1 (Homo sapiens), P00519 [T315I]; experiment: (§1) Selectivity interaction (KinomeScan (DiscoverX)) EUB0000178b ABL1; details: at 1 µM
[18] = test system: Tyrosine-protein kinase ABL1 (Homo sapiens), P00519 [M351T]; experiment: as §1; details: at 1 µM
[19] = test system: Tyrosine-protein kinase ABL1 (Homo sapiens), P00519 [Q252H]; experiment: as §1; details: at 1 µM
[20] = biological target: Tyrosine-protein kinase ABL1 (Homo sapiens, UniProt P00519, T315I); experiment: Selectivity interaction (Enzymatic assay) EUB0000178b ABL1
[21] = biological target: Serine/threonine-protein kinase 24 (Homo sapiens) (UniProt Q9Y6E0); experiment: Selectivity interaction (KinomeScan (DiscoverX)) EUB0000178b STK24; details: at 1 µM
[22] = test system: Receptor-type tyrosine-protein kinase FLT3 (Homo sapiens), P36888 [UNDEFINED MUTATION]; experiment: (§2) Selectivity interaction (KinomeScan (DiscoverX)) EUB0000138c FLT3; details: at 100 nM
[23] = test system: Receptor-type tyrosine-protein kinase FLT3 (Homo sapiens), P36888 [D835H]; experiment: as §2; details: at 100 nM

Chain of Phosphatidylinositol 4-phosphate 5-kinase type-1 gamma (Homo sapiens) (O60331 whole entry): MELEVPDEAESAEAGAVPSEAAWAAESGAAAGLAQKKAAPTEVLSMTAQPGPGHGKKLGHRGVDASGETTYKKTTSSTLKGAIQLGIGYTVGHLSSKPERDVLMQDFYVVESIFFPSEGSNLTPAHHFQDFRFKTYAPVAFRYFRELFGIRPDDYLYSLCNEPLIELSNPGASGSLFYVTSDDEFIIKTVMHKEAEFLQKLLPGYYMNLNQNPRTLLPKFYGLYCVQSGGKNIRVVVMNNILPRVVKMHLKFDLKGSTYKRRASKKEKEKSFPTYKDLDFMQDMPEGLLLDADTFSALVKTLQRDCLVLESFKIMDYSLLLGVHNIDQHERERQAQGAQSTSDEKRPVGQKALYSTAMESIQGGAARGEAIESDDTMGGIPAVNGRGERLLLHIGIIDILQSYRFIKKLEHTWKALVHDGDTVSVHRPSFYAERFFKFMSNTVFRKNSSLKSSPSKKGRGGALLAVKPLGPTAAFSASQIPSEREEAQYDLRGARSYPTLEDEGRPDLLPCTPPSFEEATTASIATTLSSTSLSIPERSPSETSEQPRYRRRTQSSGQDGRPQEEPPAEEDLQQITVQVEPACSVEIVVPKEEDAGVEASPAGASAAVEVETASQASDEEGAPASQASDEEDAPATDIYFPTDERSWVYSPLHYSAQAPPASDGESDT
Chain of Tyrosine-protein kinase Lck (P06239 2-509 limits assumed): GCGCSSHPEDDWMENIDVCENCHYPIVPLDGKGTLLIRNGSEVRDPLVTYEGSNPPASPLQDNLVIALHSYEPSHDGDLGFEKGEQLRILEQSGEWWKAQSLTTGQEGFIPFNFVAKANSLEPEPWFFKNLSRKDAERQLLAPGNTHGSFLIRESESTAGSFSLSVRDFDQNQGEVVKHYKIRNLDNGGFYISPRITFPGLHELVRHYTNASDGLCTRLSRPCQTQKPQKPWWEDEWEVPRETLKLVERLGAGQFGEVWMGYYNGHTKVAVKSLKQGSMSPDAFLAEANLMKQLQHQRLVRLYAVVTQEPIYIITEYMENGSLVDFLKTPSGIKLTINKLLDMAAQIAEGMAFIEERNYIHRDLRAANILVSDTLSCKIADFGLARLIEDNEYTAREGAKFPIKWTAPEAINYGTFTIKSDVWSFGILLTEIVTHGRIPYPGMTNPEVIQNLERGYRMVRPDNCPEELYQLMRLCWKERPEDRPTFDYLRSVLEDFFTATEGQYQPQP
Chain of Tyrosine-protein kinase CSK (Homo sapiens) (P41240 2-450 limits assumed): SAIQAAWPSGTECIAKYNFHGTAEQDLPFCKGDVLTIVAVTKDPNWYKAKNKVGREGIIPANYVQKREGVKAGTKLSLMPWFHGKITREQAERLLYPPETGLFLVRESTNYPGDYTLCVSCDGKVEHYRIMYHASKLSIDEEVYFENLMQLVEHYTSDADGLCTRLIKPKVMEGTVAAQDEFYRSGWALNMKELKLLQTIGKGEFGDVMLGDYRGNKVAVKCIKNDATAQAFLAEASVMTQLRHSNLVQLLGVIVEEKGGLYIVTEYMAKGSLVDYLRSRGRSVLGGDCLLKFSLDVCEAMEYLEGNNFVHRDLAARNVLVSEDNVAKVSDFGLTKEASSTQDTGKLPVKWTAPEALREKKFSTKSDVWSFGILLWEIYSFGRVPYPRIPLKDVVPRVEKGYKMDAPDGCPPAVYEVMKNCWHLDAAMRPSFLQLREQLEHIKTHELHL
Chain of Tyrosine-protein kinase FRK (P42685 whole entry): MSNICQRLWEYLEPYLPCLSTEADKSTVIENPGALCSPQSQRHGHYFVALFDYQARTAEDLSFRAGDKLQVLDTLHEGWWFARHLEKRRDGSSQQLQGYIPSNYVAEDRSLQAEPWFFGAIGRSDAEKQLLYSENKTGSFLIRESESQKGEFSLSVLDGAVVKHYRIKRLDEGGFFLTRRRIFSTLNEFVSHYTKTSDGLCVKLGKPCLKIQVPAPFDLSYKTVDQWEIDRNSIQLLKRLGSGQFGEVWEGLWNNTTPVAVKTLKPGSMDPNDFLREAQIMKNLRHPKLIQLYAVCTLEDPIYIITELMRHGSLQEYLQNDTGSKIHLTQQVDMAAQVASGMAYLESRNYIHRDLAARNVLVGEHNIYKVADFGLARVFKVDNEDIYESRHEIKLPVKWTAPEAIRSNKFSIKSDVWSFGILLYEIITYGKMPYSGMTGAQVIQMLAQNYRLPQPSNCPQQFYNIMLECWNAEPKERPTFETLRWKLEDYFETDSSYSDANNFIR
Chain of Casein kinase II subunit alpha' (Homo sapiens) (P19784 whole entry, looked up): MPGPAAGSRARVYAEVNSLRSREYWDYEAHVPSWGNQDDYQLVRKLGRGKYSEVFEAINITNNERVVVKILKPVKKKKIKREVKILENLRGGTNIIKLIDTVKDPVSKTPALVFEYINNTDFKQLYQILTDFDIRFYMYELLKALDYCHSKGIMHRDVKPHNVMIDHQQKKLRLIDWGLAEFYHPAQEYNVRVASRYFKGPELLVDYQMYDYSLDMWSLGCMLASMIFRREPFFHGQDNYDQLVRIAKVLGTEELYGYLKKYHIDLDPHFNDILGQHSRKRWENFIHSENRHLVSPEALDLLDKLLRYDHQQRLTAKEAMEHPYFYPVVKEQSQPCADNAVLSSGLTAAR
Chain of Non-receptor tyrosine-protein kinase TYK2 (P29597 whole entry): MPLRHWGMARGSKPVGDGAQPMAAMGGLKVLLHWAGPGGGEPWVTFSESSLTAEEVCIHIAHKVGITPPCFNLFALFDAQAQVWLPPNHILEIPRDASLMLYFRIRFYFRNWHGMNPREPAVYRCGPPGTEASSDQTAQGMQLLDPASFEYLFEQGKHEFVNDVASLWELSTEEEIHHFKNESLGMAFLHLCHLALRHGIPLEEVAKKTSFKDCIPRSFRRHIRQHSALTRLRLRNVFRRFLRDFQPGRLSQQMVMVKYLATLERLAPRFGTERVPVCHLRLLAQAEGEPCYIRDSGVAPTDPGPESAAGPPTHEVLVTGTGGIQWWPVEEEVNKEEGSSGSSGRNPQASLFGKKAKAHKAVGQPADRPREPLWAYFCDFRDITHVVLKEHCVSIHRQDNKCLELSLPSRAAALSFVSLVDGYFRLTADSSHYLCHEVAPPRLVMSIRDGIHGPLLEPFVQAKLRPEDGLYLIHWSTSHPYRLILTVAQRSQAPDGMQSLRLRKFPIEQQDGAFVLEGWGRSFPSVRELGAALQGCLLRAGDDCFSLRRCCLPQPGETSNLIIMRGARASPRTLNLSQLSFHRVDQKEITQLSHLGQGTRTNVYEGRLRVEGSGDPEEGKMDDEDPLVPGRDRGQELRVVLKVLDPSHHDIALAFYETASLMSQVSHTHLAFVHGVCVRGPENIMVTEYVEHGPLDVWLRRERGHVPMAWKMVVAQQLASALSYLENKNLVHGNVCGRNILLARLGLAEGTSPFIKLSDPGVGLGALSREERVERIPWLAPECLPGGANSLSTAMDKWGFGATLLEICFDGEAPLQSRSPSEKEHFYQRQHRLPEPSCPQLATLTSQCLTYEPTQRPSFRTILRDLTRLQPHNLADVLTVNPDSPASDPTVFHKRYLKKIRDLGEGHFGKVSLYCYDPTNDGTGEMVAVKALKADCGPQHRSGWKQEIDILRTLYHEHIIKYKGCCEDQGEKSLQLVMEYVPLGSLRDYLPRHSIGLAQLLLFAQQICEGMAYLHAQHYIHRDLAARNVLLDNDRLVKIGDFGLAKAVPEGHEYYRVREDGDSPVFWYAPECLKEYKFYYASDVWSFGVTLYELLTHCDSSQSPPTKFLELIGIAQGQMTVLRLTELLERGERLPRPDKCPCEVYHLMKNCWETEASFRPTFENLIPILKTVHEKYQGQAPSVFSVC
Chain of Serine/threonine-protein kinase 16 (O75716 whole entry): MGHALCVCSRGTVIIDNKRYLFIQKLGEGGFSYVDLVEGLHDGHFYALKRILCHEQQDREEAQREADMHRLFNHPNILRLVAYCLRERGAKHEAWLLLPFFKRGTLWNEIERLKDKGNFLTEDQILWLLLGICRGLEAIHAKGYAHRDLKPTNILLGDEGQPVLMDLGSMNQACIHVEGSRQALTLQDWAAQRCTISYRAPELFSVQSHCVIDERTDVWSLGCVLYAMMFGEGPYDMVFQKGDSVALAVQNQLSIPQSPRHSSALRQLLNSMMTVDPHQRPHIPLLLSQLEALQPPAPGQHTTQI
Chain of Serine/threonine-protein kinase PLK2 (Homo sapiens) (Q9NYY3 whole entry, looked up): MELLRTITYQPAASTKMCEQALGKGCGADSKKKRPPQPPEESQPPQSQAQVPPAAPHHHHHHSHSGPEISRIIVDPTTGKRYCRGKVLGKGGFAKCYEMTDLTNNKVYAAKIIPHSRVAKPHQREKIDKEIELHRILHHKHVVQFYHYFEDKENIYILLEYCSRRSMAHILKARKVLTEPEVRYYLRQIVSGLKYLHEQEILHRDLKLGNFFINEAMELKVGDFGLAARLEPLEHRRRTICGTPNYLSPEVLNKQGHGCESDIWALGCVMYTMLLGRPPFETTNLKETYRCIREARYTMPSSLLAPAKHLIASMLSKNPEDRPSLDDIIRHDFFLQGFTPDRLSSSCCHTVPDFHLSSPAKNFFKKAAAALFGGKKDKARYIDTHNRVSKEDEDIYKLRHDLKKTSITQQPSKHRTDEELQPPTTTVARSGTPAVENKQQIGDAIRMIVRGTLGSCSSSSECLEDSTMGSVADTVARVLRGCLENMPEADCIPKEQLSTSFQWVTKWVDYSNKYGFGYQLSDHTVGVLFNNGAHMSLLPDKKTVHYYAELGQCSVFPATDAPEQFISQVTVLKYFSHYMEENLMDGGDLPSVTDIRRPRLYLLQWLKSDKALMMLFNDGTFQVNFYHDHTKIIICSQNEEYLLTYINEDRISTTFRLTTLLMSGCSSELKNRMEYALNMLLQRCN

CN(c1ccnc(CNc2nc(Nc3ccc4c(c3)CC(=O)N4)ncc2C(F)(F)F)n1)S(C)(=O)=O [PF-00911705]
% of control [1]: 1.5% | % of control [2]: 1.2% | % of control [3]: 0% | % of control [4]: 10% | % of control [5]: 66.7% | % of control [6]: 3.8%

CCOc1cn(-c2ccc(F)cc2C)nc1C(=O)Nc1ccc(Oc2ccnc3cc(OC)c(OC)cc23)c(F)c1
% of control [7]: < 10% | % of control [8]: < 10%

CC[C@@H]1C(=O)N(C)c2cnc(Nc3ccc(C(=O)NC4CCN(C)CC4)cc3OC)nc2N1C1CCCC1
% of control [9]: 55% | % of control [10]: 99% | % of control [11]: 1.2%

COc1cc2ncn(-c3cc(OCc4ccccc4C(F)(F)F)c(C(N)=O)s3)c2cc1OC [GW843682X]
% of control [12]: 9.9% | % of control [13]: 10%

CN1C(=O)c2sccc2N(C)c2nc(Nc3ccc(S(N)(=O)=O)cc3)ncc21
pKd [14]: 6.21 | % of control [15]: 8% | % of control [16]: 10% | % of control [17]: 1.6% | % of control [18]: 5.5% | % of control [19]: 6.8% | pIC50 [20]: 7.78 | % of control [21]: 0.9%

CNC(=O)c1ccc(Nc2ncc(C(F)(F)F)c(NCc3nccnc3N(C)S(C)(=O)=O)n2)cc1 [DEFACTINIB]
% of control [22]: 9% | % of control [23]: 99.8%
